Results taken from patent US8822447B2, “Indazole compounds useful as ketohexokinase inhibitors” (Janssen Pharmaceutica NV, priority 2010, dated 2014).
Where a name gives a salt, the structure may show the parent alone.

molecular target: KHK (Homo sapiens (Human), UniProt P50053); assay: In Vitro KHK Enzyme Assay (HTMS); type: biochemical; conditions: 200 μM fructose, 100 μM ATP, 2 nM KHK, 60 min at 25° C.; Fructose-1-P detected by high throughput mass spectrometry;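 note: primary screen measuring inhibition of KHK-catalysed conversion of D-fructose into fructose 1-phosphate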
Sequence (P50053 whole entry): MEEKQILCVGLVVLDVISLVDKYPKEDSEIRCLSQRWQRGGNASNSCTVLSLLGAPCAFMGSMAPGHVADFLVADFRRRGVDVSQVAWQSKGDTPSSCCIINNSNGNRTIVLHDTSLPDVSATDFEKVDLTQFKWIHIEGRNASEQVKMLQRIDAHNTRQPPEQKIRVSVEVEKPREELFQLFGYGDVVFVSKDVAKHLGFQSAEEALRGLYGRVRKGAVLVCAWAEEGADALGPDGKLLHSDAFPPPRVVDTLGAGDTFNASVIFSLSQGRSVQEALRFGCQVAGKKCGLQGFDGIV

Structure (SMILES)	IC50 [nM]
CSc1nn(-c2ccccc2)c2cc(C=CC3CCCN3)ccc12 (stereo not drawn) [Compound 175, 3-Methylsulfanyl-1-phenyl-6-(2-pyrrolidin-2-yl-vinyl)-1H-indazole]	610
CSc1nn(-c2cccc(C)c2)c2cc(N3CCN(C4CCNCC4)CC3)ccc12 [Compound 119, 3-Methylsulfanyl-6-(4-piperidin-4-yl-piperazin-1-yl)-1-m-tolyl-1H-indazole]	380
CCc1nn(-c2ccccc2)c2nc(C3CCN(C4CCNC4)CC3)nc(O)c12 (stereo not drawn) [Compound 94, 3-Ethyl-1-phenyl-6-(1-pyrrolidin-3-yl-piperidin-4-yl)-1H-pyrazolo[3,4-d]pyrimidin-4-ol hydrochloride]	5270

Continued, values first:

IC50 [nM]	Structure (SMILES)
300	CSc1nn(-c2ccccc2)c2cc(NC(=O)C3(N)CCNCC3)ccc12 [Compound 157, 4-Amino-piperidine-4-carboxylic acid (3-methylsulfanyl-1-phenyl-1H-indazol-6-yl)-amide]
790	CSc1nn(-c2ccccc2)c2cc(C=CC3CCCNC3)ccc12 (stereo not drawn) [Compound 176, 3-Methylsulfanyl-1-phenyl-6-(2-piperidin-3-yl-vinyl)-1H-indazole]
660	CSc1nn(-c2ccccc2)c2cc(NC(=O)C3(F)CCNCC3)ccc12 [Compound 167, 4-Fluoro-piperidine-4-carboxylic acid (3-methylsulfanyl-1-phenyl-1H-indazol-6-yl)-amide]
